Measurements as given in publication PMC10734772 (Turkish Journal of Chemistry, 2021).

Key:
Format in all cases: cell-based
K562 = experiment: MTT assay, K562 cells; conditions: Homo sapiens, 24 h, MTT, read-out: Viability rate
Nalm-6 = experiment: MTT assay, Nalm-6 cells; conditions: Homo sapiens, 24 h, MTT, read-out: Viability rate
Molt-4 = experiment: MTT assay, Molt-4 cells; conditions: Homo sapiens, MOLT-4, 24 h, read-out: Viability rate
Reh = experiment: MTT assay, Reh cells; conditions: Homo sapiens, 24 h, read-out: Viability rate
Jurkat = experiment: MTT assay, Jurkat cells; conditions: Homo sapiens, 24 h, read-out: Viability rate
[1] = MTT assay, Hek293T non-leukemic control cells; conditions: human, read-out: Viability rate
[2] = tested on: K562, Nalm-6, Molt-4, Reh, Jurkat, Hek293T cell lines; experiment: MTT assay, overall judgement over all cell lines; conditions: overall judgement in words; for 6 and 10: on all cell lines, except Reh
Summary of the method: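 MTT viability assay run across a range of compound concentrations in leukemic lines, BCR-ABL positive K562 and BCR-ABL negative Nalm-6, Molt-4, Reh, Jurkat, plus non-leukemic Hek293T. Viability rate calculated per concentration.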

Question: Which results are given for `Cc1ccnc(Nc2cc(NC(=O)c3ccc(CN4CCOCC4)cc3)ccc2C)n1` [Compound 8, N-(4-Methyl-3-((4-methylpyrimidin-2-yl)amino)phenyl)-4-(morhpolinomethyl)benzamide]?
Answer: viability at 0.3 µM (K562; K562, 0.3 μM): 86.2 ± 0.09%; viability at 0.5 µM (K562; K562, 0.5 μM): 85.3 ± 0.03%; viability at 1 µM (K562; K562, 1 μM): 84.7 ± 0.05%; viability at 3 µM (K562; K562, 3 μM): 84.7 ± 0.06%; viability at 5 µM (K562; K562, 5 μM): 76.8 ± 0.11%; viability at 10 µM (K562; K562, 10 μM): 76.7 ± 0.05%; viability at 15 µM (K562; K562, 15 μM): 76.7 ± 0.08%; viability at 20 µM (K562; K562, 20 μM): 76.6 ± 0.04%; viability at 30 µM (K562; K562, 30 μM): 75.6 ± 0.09%; viability at 50 µM (K562; K562, 50 μM): 72.5 ± 0.07%; viability at 70 µM (K562; K562, 70 μM): 72.6 ± 0.08%; viability at 100 µM (K562; K562, 100 μM): 66.4 ± 0.02%; viability at 150 µM (K562; K562, 150 μM): 65.3 ± 0.06%; viability at 200 µM (K562; K562, 200 μM): 65.2 ± 0.06%; viability at 0.3 µM (Nalm-6; Nalm-6, 0.3 μM): 102.8 ± 0.04%; viability at 0.5 µM (Nalm-6; Nalm-6, 0.5 μM): 101.8 ± 0.04%; viability at 1 µM (Nalm-6; Nalm-6, 1 μM): 102.7 ± 0.02%; viability at 3 µM (Nalm-6; Nalm-6, 3 μM): 99.6 ± 0.04%; viability at 5 µM (Nalm-6; Nalm-6, 5 μM): 102.5 ± 0.02%; viability at 10 µM (Nalm-6; Nalm-6, 10 μM): 100.6 ± 0.03%; viability at 15 µM (Nalm-6; Nalm-6, 15 μM): 100 ± 0.03%; viability at 20 µM (Nalm-6; Nalm-6, 20 μM): 94.2 ± 0.07%; viability at 30 µM (Nalm-6; Nalm-6, 30 μM): 95.9 ± 0.07%; viability at 50 µM (Nalm-6; Nalm-6, 50 μM): 91.9 ± 0.06%; viability at 70 µM (Nalm-6; Nalm-6, 70 μM): 87.7 ± 0.02%; viability at 100 µM (Nalm-6; Nalm-6, 100 μM): 87.4 ± 0.02%; viability at 150 µM (Nalm-6; Nalm-6, 150 μM): 81.3 ± 0.02%; viability at 200 µM (Nalm-6; Nalm-6, 200 μM): 70.8 ± 0.01%; viability at 0.3 µM (Molt-4; Molt-4, 0.3 μM): 98.5 ± 0.09%; viability at 0.5 µM (Molt-4; Molt-4, 0.5 μM): 98.5 ± 0.11%; viability at 1 µM (Molt-4; Molt-4, 1 μM): 95.4 ± 0.11%; viability at 3 µM (Molt-4; Molt-4, 3 μM): 89.2 ± 0.07%; viability at 5 µM (Molt-4; Molt-4, 5 μM): 90.7 ± 0.07%; viability at 10 µM (Molt-4; Molt-4, 10 μM): 90.4 ± 0.07%; viability at 15 µM (Molt-4; Molt-4, 15 μM): 90.8 ± 0.05%; viability at 20 µM (Molt-4; Molt-4, 20 μM): 88.3 ± 0.04%; viability at 30 µM (Molt-4; Molt-4, 30 μM): 85.8 ± 0.04%; viability at 50 µM (Molt-4; Molt-4, 50 μM): 83.6 ± 0.02%; viability at 70 µM (Molt-4; Molt-4, 70 μM): 82.6 ± 0.09%; viability at 100 µM (Molt-4; Molt-4, 100 μM): 81.5 ± 0.09%; viability at 150 µM (Molt-4; Molt-4, 150 μM): 78.9 ± 0.05%; viability at 200 µM (Molt-4; Molt-4, 200 μM): 78.8 ± 0.07%; viability at 0.3 µM (Reh; 0.3 μM): 100.8 ± 0.03%; viability at 0.5 µM (Reh; 0.5 μM): 102.4 ± 0.02%; viability at 1 µM (Reh; 1 μM): 102 ± 0.01%; viability at 3 µM (Reh; 3 μM): 104.8 ± 0.02%; viability at 5 µM (Reh; 5 μM): 103.5 ± 0.01%; viability at 10 µM (Reh; 10 μM): 103.1 ± 0.01%; viability at 15 µM (Reh; 15 μM): 100.3 ± 0.01%; viability at 20 µM (Reh; 20 μM): 100.6 ± 0.02%; viability at 30 µM (Reh; 30 μM): 102.4 ± 0.04%; viability at 50 µM (Reh; 50 μM): 99.4 ± 0.02%; viability at 70 µM (Reh; 70 μM): 94.2 ± 0.03%; viability at 100 µM (Reh; 100 μM): 91.1 ± 0.01%; viability at 150 µM (Reh; 150 μM): 91.1 ± 0.02%; viability at 200 µM (Reh; 200 μM): 91.2 ± 0.04%; viability at 0.3 µM (Jurkat; 0.3 μM): 81.7 ± 0.08%; viability at 0.5 µM (Jurkat; 0.5 μM): 78.7 ± 0.03%; viability at 1 µM (Jurkat; 1 μM): 75.8 ± 0.04%; viability at 3 µM (Jurkat; 3 μM): 76.8 ± 0.04%; viability at 5 µM (Jurkat; 5 μM): 78.8 ± 0.02%; viability at 10 µM (Jurkat; 10 μM): 78.5 ± 0.05%; viability at 15 µM (Jurkat; 15 μM): 77.6 ± 0.05%; viability at 20 µM (Jurkat; 20 μM): 77.6 ± 0.04%; viability at 30 µM (Jurkat; 30 μM): 66.1 ± 0.07%; viability at 50 µM (Jurkat; 50 μM): 65.4 ± 0.03%; viability at 70 µM (Jurkat; 70 μM): 65.3 ± 0.04%; viability at 100 µM (Jurkat; 100 μM): 63 ± 0.02%; viability at 150 µM (Jurkat; 150 μM): 62.4 ± 0.08%; viability at 200 µM (Jurkat; 200 μM): 62.3 ± 0.05%; viability at 24 h, 0.3 µM ([1]; Hek293T cells (non-leukemic control cell line), 0.3 μM): 95.7 ± 0.03%; viability at 24 h, 0.5 µM ([1]; Hek293T cells (non-leukemic control cell line), 0.5 μM): 94.8 ± 0.07%; viability at 24 h, 3 µM ([1]; Hek293T cells (non-leukemic control cell line), 3 μM): 92.9 ± 0.04%; viability at 24 h, 5 µM ([1]; Hek293T cells (non-leukemic control cell line), 5 μM): 91.2 ± 0.09%; viability at 24 h, 10 µM ([1]; Hek293T cells (non-leukemic control cell line), 10 μM): 90.8 ± 0.05%; viability at 24 h, 15 µM ([1]; Hek293T cells (non-leukemic control cell line), 15 μM): 90.1 ± 0.07%; viability at 24 h, 20 µM ([1]; Hek293T cells (non-leukemic control cell line), 20 μM): 90 ± 0.04%; viability at 24 h, 30 µM ([1]; Hek293T cells (non-leukemic control cell line), 30 μM): 84.9 ± 0.04%; viability at 24 h, 50 µM ([1]; Hek293T cells (non-leukemic control cell line), 50 μM): 81.3 ± 0.02%; viability at 24 h, 70 µM ([1]; Hek293T cells (non-leukemic control cell line), 70 μM): 66.9 ± 0.02%; viability at 24 h, 100 µM ([1]; Hek293T cells (non-leukemic control cell line), 100 μM): 66.4 ± 0.03%; viability at 24 h, 150 µM ([1]; Hek293T cells (non-leukemic control cell line), 150 μM): 59.4 ± 0.01%; viability at 24 h, 200 µM ([1]; Hek293T cells (non-leukemic control cell line), 200 μM): 58.2 ± 0.01%; viability at 24 h, 1 µM ([1]; Hek293T cells, 1 μM): 94.3 ± 0.06%; anticancer activity according to MTT assay results [2]: relatively lower activity
